Assay results published in patent US10815222B2, “Compounds for use in the treatment of kinetoplastid infection” (C.N.C.C.S. S.c.a.r.l. COLLEZIONE NAZIONALE DEI COMPOSTI …, priority 2016, dated 2020).
pEC50: −log10 of the molar value.

The compounds below were run on Bloodstream form of Trypanosoma brucei, strain Lister 427 (assay: Trypanosoma brucei growth inhibition assay (CellTiter-Glo, 24 h)). Details: T. Brucei Growth Inibition Assay, class symbols; read-out: T. Brucei GI EC50.
Format: cell-based
Procedure: Bloodstream form of Trypanosoma brucei, strain Lister 427 (provided by Prof. Miguel Navarro, Instituto de Parasitologia y Biomedicina “Lopez-Neyra” Avda. Conocimiento S/N Parque Tecnologico Ciencias de la Salud—Spain; ref. Navarro M. and Cross G. A. M. Molecular and Cellular Biology, 1996, Vol. 16, No. 7, pp. 3615-3625) were grown in IMDM Iscove's Modified Dulbecco's Medium (SIGMA #17633) supplemented with: 3.024 g/l sodium bicarbonate, hypoxanthine 1 mM, thymidine 0.16 mM, bathocuprione sulfonic acid 0.05 mM, cysteine 1.5 mM, ß-mercaptoethanol […] and 10% foetal bovine serum (heat-inactivated at 56° C. for 30 min). Parasites were grown at 37° C. in flasks with vented caps in a 5% CO2 incubator to a maximum cell density of about 2×10^6/ml and diluted every two-three days.
The compounds of the invention were dissolved in DMSO and transferred to assay plates by acoustic droplet ejection (ATS-100, EDC Biosystems, USA) in order to obtain an appropriate concentration and to keep the concentration of DMSO below or equal to 0.25% in the final assay volume of 30 μL. 1500 parasites resuspended in 30 μL of culture medium were then transferred to each well of a 384-well plate.
After an incubation period of 24 hours at 37° C., each well is added 15 μl of CellTiter-Glo® Reagent (Promega) and incubated at room temperature. 5-10 min post incubation, the plate is read using a luminometer (ViewLux®). A known inhibitor of the growth of T. brucei was used as the reference positive control.

Q: With `O=C(Cc1c[nH]c2ccc(O)cc12)N1CCN(CCc2ccccc2)CC1c1ncc(-c2ccc3ccccc3c2)[nH]1` (centres unmarked) as the compound, how does the pEC50 read?
A: 5.30 to 6.00

Same assay, conditions: Trypanosoma brucei; T. Brucei Growth Inibition Assay, class symbols; read-out: T. Brucei GI EC50

Q: `COc1nc2ccccc2cc1-c1cnc([C@@H]2CN(Cc3cnccn3)CCN2C(=O)Cn2c(C(F)(F)F)nc3ccccc32)[nH]1` [(S)-1-(2-(5-(2-methoxyquinolin-3-yl)-1H-imidazol-2-yl)-4-(pyrazin-2-ylmethyl)piperazin-1-yl)-2-(2-(trifluoromethyl)-1H-benzo[d]imidazol-1-yl)ethan-1-one] was tested. Which pEC50 did it give?
A: > 7.00

Q: With `CCC(=O)CCCN1CCN(C(=O)Cc2c(C)[nH]c3ccc(OC)cc23)C(c2ncc(-c3ccccc3)[nH]2)C1` (centres unmarked) as the compound, how does the pEC50 read?
A: 6.30 to 7.00

Q: With `CCC(=O)CCCN1CCN(C(=O)Cc2c[nH]c3ccccc23)[C@@H](c2ncc(-c3ccc4ccccc4c3)[nH]2)C1` as the compound, how does the pEC50 read?
A: 5.30 to 6.00

Q: With `CN1CCN(C(=O)Cc2ccncc2)C(c2ncc(-c3ccc4ccccc4c3)[nH]2)C1` (centres unmarked) as the compound, how does the pEC50 read?
A: 5.30 to 6.00

Q: `Cc1csc(CC(=O)N2CCN(CC3CC3)CC2c2ncc(-c3ccc4ccccc4c3)[nH]2)n1` (centres unmarked) was tested. Which pEC50 did it give?
A: 5.30 to 6.00

Q: With `COc1ccc2nc(C(F)(F)F)n(CC(=O)N3CCN(CCn4cccn4)C[C@H]3c3ncc(-c4cc5ccccc5nc4OC)[nH]3)c2c1` [(S)-1-(4-(2-(1H-pyrazol-1-yl)ethyl)-2-(5-(2-methoxyquinolin-3-yl)-1H-imidazol-2-yl)piperazin-1-yl)-2-(6-methoxy-2-(trifluoromethyl)-1H-benzo[d]imidazol-1-yl)ethan-1-one] as the compound, how does the pEC50 read?
A: > 7.00

Q: How did the pEC50 turn out when `COc1ccc2nc(C)n(CC(=O)N3CCN(Cc4nncn4C)C[C@H]3c3ncc(-c4cc5ccccc5nc4OC)[nH]3)c2c1` [(S)-2-(6-methoxy-2-methyl-1H-benzo[d]imidazol-1-yl)-1-(2-(5-(2-methoxyquinolin-3-yl)-1H-imidazol-2-yl)-4-((4-methyl-4H-1,2,4-triazol-3-yl)methyl)piperazin-1-yl)ethan-1-one] was run?
A: 6.00 to 6.29

Q: How did the pEC50 turn out when `COc1nc2ccccc2cc1-c1cnc(C2CN(CC3CCOC3)CCN2C(=O)Cc2noc3ccccc23)[nH]1` (centres unmarked) was run?
A: 6.00 to 6.29

Q: With `CCC(=O)CCCN1CCN(C(=O)Nc2ccccc2)C(c2ncc(-c3ccc4ccccc4c3)[nH]2)C1` (centres unmarked) [2-(5-(naphthalen-2-yl)-1H-imidazol-2-yl)-4-(4-oxohexyl)-N-phenylpiperazine-1-carboxamide] as the compound, how does the pEC50 read?
A: 5.30 to 6.00

Q: `COc1nc2ccccc2cc1-c1cnc(C2CN(C(C)C)CCN2C(=O)Cc2ccccc2)[nH]1` (centres unmarked) was tested. Which pEC50 did it give?
A: 5.30 to 6.00

Q: With `COc1ccc2c(c1)C(CC(=O)N1CCN(CC3CC3)CC1c1ncc(-c3ccc4ccccc4c3)[nH]1)C(=O)N2` (centres unmarked) as the compound, how does the pEC50 read?
A: 5.30 to 6.00

Q: How did the pEC50 turn out when `COc1ccc2nc(C(F)(F)F)n(CC(=O)N3C[C@H](NC4CCOC4)CC[C@H]3c3ncc(-c4cc5ccccc5nc4OC)[nH]3)c2c1` (stereo partly drawn) [2-(6-methoxy-2-(trifluoromethyl)-1H-benzo[d]imidazol-1-yl)-1-((2S,5R)-2-(5-(2-methoxyquinolin-3-yl)-1H-imidazol-2-yl)-5-((tetrahydrofuran-3-yl)amino)piperidin-1-yl)ethan-1-one] was run?
A: > 7.00

Q: `COc1nc2ccccc2cc1-c1cnc(C2CN(CC3CCOC3)CCN2C(=O)Cn2c(C3CC3)nc3ccccc32)[nH]1` (centres unmarked) was tested. Which pEC50 did it give?
A: 6.30 to 7.00

Q: With `COc1ccc2nc(C(F)(F)F)n(CC(=O)N3CCN(Cc4ccnnc4)C[C@H]3c3ncc(-c4cc5ccccc5nc4OC)[nH]3)c2c1` [(S)-2-(6-methoxy-2-(trifluoromethyl)-1H-benzo[d]imidazol-1-yl)-1-(2-(5-(2-methoxyquinolin-3-yl)-1H-imidazol-2-yl)-4-(pyridazin-4-ylmethyl)piperazin-1-yl)ethan-1-one] as the compound, how does the pEC50 read?
A: > 7.00

Q: `COc1nc2ccccc2cc1-c1cnc(C2CN(CC3CCOC3)CCN2C(=O)Cn2nnc3ccccc32)[nH]1` (centres unmarked) was tested. Which pEC50 did it give?
A: 6.00 to 6.29

Q: `COc1ccc2nc(C(F)(F)F)n(CC(=O)N3CCN(Cc4cscn4)C[C@H]3c3ncc(-c4cc5ccccc5nc4OC)[nH]3)c2c1` [(S)-2-(6-methoxy-2-(trifluoromethyl)-1H-benzo[d]imidazol-1-yl)-1-(2-(5-(2-methoxyquinolin-3-yl)-1H-imidazol-2-yl)-4-(thiazol-4-ylmethyl)piperazin-1-yl)ethan-1-one] was tested. Which pEC50 did it give?
A: > 7.00

Q: With `CCC(=O)CCCN1CCN(C(=O)c2cncs2)C(c2ncc(-c3ccc4ccccc4c3)[nH]2)C1` (centres unmarked) as the compound, how does the pEC50 read?
A: 5.30 to 6.00

Q: With `O=C(Cc1n[nH]c2ccccc12)N1CCN(CC2CCOC2)CC1c1ncc(-c2ccc3ccccc3c2)[nH]1` (centres unmarked) as the compound, how does the pEC50 read?
A: 5.30 to 6.00

Q: How did the pEC50 turn out when `COc1ccc2nc(C)n(CC(=O)N3CCN(CC4CCOC4)C[C@H]3c3ncc(-c4cnc5ccccc5c4)[nH]3)c2c1` (some centres unmarked) was run?
A: 6.00 to 6.29

Q: How did the pEC50 turn out when `COc1nc2ccccc2cc1-c1cnc(C2COCCN2C(=O)Cn2c(C)nc3ccccc32)[nH]1` (centres unmarked) was run?
A: 5.30 to 6.00

Q: With `COc1nc2ccccc2cc1-c1cnc(C2CN(CC3CCOC3)CCN2C(=O)Cc2c(C)[nH]c3ccccc23)[nH]1` (centres unmarked) as the compound, how does the pEC50 read?
A: 6.30 to 7.00

Q: With `COc1ccc2nc(C(F)(F)F)n(CC(=O)N3CC[C@H](NCc4ccccn4)C[C@H]3c3ncc(-c4cc5ccccc5nc4OC)[nH]3)c2c1` [2-(6-methoxy-2-(trifluoromethyl)-1H-benzo[d]imidazol-1-yl)-1-((2S,4S)-2-(5-(2-methoxyquinolin-3-yl)-1H-imidazol-2-yl)-4-((pyridin-2-ylmethyl)amino)piperidin-1-yl)ethan-1-one] as the compound, how does the pEC50 read?
A: > 7.00

Q: How did the pEC50 turn out when `CN1CCN(C(=O)Cn2cc3ccccc3n2)C(c2ncc(-c3ccc4ccccc4c3)[nH]2)C1` (centres unmarked) was run?
A: 5.30 to 6.00

Q: With `COc1cc2nc(C(F)(F)F)n(CC(=O)N3CCN(CC4CCOC4)C[C@H]3c3ncc(-c4cc5ccccc5nc4OC)[nH]3)c2cc1OC` (stereo partly drawn) [2-(5,6-dimethoxy-2-(trifluoromethyl)-1H-benzo[d]imidazol-1-yl)-1-((2S)-2-(5-(2-methoxyquinolin-3-yl)-1H-imidazol-2-yl)-4-((tetrahydrofuran-3-yl)methyl)piperazin-1-yl)ethan-1-one] as the compound, how does the pEC50 read?
A: > 7.00

Q: `COc1nc2ccccc2cc1-c1cnc([C@@H]2CN(Cc3ccccc3)CCN2C(=O)Cn2c(C(F)(F)F)nc3ccccc32)[nH]1` [(S)-1-(4-benzyl-2-(5-(2-methoxyquinolin-3-yl)-1H-imidazol-2-yl)piperazin-1-yl)-2-(2-(trifluoromethyl)-1H-benzo[d]imidazol-1-yl)ethan-1-one] was tested. Which pEC50 did it give?
A: > 7.00

Q: With `COc1nc2ccccc2cc1-c1cnc([C@@H]2CCN(Cc3ccn(C)n3)CCN2C(=O)[C@](OC)(c2ccccc2)C(F)(F)F)[nH]1` as the compound, how does the pEC50 read?
A: 5.30 to 6.00

Q: `O=C(Cc1n[nH]c2ccccc12)N1CCN(CC2CC2)CC1c1ncc(-c2ccc3ccccc3c2)[nH]1` (centres unmarked) was tested. Which pEC50 did it give?
A: 5.30 to 6.00

Q: With `COc1ccc2nc(C(F)(F)F)n(CC(=O)N3CC[C@H](NCc4nccs4)C[C@H]3c3ncc(-c4cc5ccccc5nc4OC)[nH]3)c2c1` [2-(6-methoxy-2-(trifluoromethyl)-1H-benzo[d]imidazol-1-yl)-1-((2S,4S)-2-(5-(2-methoxyquinolin-3-yl)-1H-imidazol-2-yl)-4-((thiazol-2-ylmethyl)amino)piperidin-1-yl)ethan-1-one] as the compound, how does the pEC50 read?
A: > 7.00

Q: With `COc1ccc2nc(C(F)(F)F)n(CC(=O)N3CCN(C4CCCC4)CCC3c3ncc(-c4cc5ccccc5nc4OC)[nH]3)c2c1` (centres unmarked) as the compound, how does the pEC50 read?
A: 6.30 to 7.00

Q: How did the pEC50 turn out when `COc1ccc2cc(C)n(CC(=O)N3CCOCC3c3ncc(-c4cc5ccccc5nc4OC)[nH]3)c2c1` (centres unmarked) was run?
A: 6.00 to 6.29

Q: With `COc1ccc2c(c1)C(CC(=O)N1CCN(C)CC1c1ncc(-c3ccc4ccccc4c3)[nH]1)C(=O)N2` (centres unmarked) as the compound, how does the pEC50 read?
A: 5.30 to 6.00

Q: With `COc1ccc2nc(C(F)(F)F)n(CC(=O)N3CCN(CC4CCOC4)C[C@H]3c3ncc(-c4cc5ccccc5nc4OC)[nH]3)c2c1` (stereo partly drawn) [2-(6-methoxy-2-(trifluoromethyl)-1H-benzo[d]imidazol-1-yl)-1-((2S)-2-(5-(2-methoxyquinolin-3-yl)-1H-imidazol-2-yl)-4-((tetrahydrofuran-3-yl)methyl)piperazin-1-yl)ethan-1-one] as the compound, how does the pEC50 read?
A: > 7.00

Q: `COc1ccc2nc(C(F)(F)F)n(CC(=O)N3CCN(Cc4nccs4)C[C@H]3c3nnc(-c4cc5ccccc5nc4OC)[nH]3)c2c1` [(S)-2-(6-methoxy-2-(trifluoromethyl)-1H-benzo[d]imidazol-1-yl)-1-(2-(5-(2-methoxyquinolin-3-yl)-4H-1,2,4-triazol-3-yl)-4-(thiazol-2-ylmethyl)piperazin-1-yl)ethan-1-one] was tested. Which pEC50 did it give?
A: > 7.00

Q: With `COc1ccc2nc(C(F)(F)F)n(CC(=O)N3CCN(C4CCOC4)CCC3c3ncc(-c4cc5ccccc5nc4OC)[nH]3)c2c1` (centres unmarked) [2-(6-methoxy-2-(trifluoromethyl)-1H-benzo[d]imidazol-1-yl)-1-(7-(5-(2-methoxyquinolin-3-yl)-1H-imidazol-2-yl)-4-(tetrahydrofuran-3-yl)-1,4-diazepan-1-yl)ethan-1-one] as the compound, how does the pEC50 read?
A: > 7.00

Q: With `O=C(Cc1c[nH]c2ncccc12)N1CCCCC1c1ncc(-c2ccc3ccccc3c2)[nH]1` (centres unmarked) as the compound, how does the pEC50 read?
A: 5.30 to 6.00

Q: `COc1ccc2nc(C)n(CC(=O)N3CCN(Cc4nccs4)CCC3c3ncc(-c4cc5ccccc5nc4OC)[nH]3)c2c1` (centres unmarked) [2-(6-methoxy-2-methyl-1H-benzo[d]imidazol-1-yl)-1-(7-(5-(2-methoxyquinolin-3-yl)-1H-imidazol-2-yl)-4-(thiazol-2-ylmethyl)-1,4-diazepan-1-yl)ethan-1-one] was tested. Which pEC50 did it give?
A: > 7.00

Q: With `COc1nc2ccccc2cc1-c1cnc([C@@H]2CN(Cc3cnn(C)c3)CCN2C(=O)Cn2c(C(F)(F)F)nc3ccccc32)[nH]1` as the compound, how does the pEC50 read?
A: 6.30 to 7.00
